Assays:
[1] = biological target: JNK2 (Homo sapiens, UniProt P45984); test: Kinase electrophoretic mobility shift assay, JNK2; format: biochemical; conditions: compounds tested at 10 μM, average of n = 2, ATP at apparent Km; read-out: JNK2 activity (percent inhibition)
Procedure: (§1) Kinase activity is measured in vitro using electrophoretic mobility shift assay. The kinase reactions are assembled in 384 well plates in total volume of 25 μL. The reactions comprise: purified recombinant kinase enzyme, test compound, ATP (at apparent Km for each kinase), and fluorescently labeled peptide substrate. The reaction buffer composed of: 100 mM HEPES, pH7.5; 5 mM MgCl2; 1 mM DTT; 0.1% bovine serum albumin; 0.01% Triton X-100, and 1% DMSO (from compound). The reactions were incubated at room temperature for indicated time and quenched by addition of 45 μL of termination buffer (100 mM HEPES pH7.5; 0.01% Triton X-100; 30 mM EDTA). Substrate and product peptides in each sample were electrophoretically separated and detected using 12 channel LabChip3000® microfluidic capillary electrophoresis instrument (Caliper Life Sciences). The change in the relative fluorescence intensities of substrate and product peaks (reflecting enzyme activity) was measured. Capillary electrophoregramms were analyzed using HTS Well Analyzer software (Caliper Life Sciences). The kinase activity in each sample was determined as “product to sum” ratio (PSR):P/(S+P), where P is the peak height of the product peptide and S is the peak height of the substrate peptide. Negative control samples (0%-inhibition in the absence of inhibitor) and positive control samples (100%-inhibition, in the presence of 20 mM EDTA) were assembled in replicates of four and were used to calculate %-inhibition values for each compound at each concentration. Percent inhibition (Pinh) was determined using following equation: Pinh=(PSR0%−PSRinh)/(PSR0%−PSR100%)*100, where PSRinh is the product-sum ratio in the presence of inhibitor, PSR0% is the average product-sum ration in the absence of inhibitor and PSR100% is the average product-sum ratio in 100%-inhibition control samples. The IC50 values of reference inhibitors were determined by fitting the inhibition curves by a 4 parameter sigmoid dose-response model using XLfit 4 software (IDBS).

[2] = biological target: T1, Aurora -A (Homo sapiens, UniProt O14965); test: Kinase electrophoretic mobility shift assay, Aurora -A; format: biochemical; conditions: compounds tested at 10 μM, average of n = 2, ATP at apparent Km; read-out: Aurora -A activity (percent inhibition)
T1 sequence (O14965 1-403): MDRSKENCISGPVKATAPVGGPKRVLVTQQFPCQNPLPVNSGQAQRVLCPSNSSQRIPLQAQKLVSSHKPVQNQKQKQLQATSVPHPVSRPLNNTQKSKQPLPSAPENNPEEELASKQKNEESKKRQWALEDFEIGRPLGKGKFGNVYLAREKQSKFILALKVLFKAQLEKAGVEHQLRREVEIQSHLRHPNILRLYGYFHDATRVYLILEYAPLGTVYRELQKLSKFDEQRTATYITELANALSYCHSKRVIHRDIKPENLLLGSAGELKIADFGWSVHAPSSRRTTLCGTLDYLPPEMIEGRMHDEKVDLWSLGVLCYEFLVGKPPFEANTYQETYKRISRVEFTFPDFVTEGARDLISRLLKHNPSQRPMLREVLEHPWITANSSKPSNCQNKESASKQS
Procedure: as §1

[3] = biological target: T2, DYRK3 (Homo sapiens, UniProt O43781); test: Kinase electrophoretic mobility shift assay, DYRK3; format: biochemical; conditions: compounds tested at 10 μM, average of n = 2, ATP at apparent Km; read-out: DYRK3 activity (percent inhibition)
T2 sequence (O43781 1-588): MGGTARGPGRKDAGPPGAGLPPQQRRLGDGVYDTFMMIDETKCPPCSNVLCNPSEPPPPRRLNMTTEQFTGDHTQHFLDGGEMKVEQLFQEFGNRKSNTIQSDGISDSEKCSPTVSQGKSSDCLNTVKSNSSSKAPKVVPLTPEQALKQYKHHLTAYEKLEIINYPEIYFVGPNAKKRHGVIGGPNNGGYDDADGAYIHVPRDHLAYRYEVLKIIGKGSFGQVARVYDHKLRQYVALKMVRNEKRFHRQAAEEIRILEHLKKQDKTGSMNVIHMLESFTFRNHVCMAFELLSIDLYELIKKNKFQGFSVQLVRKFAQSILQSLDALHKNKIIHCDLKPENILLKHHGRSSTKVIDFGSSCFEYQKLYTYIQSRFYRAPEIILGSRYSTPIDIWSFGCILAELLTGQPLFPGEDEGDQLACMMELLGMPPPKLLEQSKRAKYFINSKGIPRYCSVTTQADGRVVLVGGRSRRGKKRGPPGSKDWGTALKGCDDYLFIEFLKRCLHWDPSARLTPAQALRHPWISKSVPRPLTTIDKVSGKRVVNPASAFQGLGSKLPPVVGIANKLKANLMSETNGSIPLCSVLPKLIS
Procedure: as §1

[4] = biological target: MAPK3 (Homo sapiens, UniProt P27361); test: Kinase electrophoretic mobility shift assay, MAPK3; format: biochemical; conditions: compounds tested at 10 μM, average of n = 2, ATP at apparent Km; read-out: MAPK3 activity (percent inhibition)
Procedure: as §1

[5] = biological target: T3, HIPK4 (Homo sapiens, UniProt Q8NE63); test: Kinase electrophoretic mobility shift assay, HIPK4; format: biochemical; conditions: compounds tested at 10 μM, average of n = 2, ATP at apparent Km; read-out: HIPK4 activity (percent inhibition)
T3 sequence (Q8NE63 1-616): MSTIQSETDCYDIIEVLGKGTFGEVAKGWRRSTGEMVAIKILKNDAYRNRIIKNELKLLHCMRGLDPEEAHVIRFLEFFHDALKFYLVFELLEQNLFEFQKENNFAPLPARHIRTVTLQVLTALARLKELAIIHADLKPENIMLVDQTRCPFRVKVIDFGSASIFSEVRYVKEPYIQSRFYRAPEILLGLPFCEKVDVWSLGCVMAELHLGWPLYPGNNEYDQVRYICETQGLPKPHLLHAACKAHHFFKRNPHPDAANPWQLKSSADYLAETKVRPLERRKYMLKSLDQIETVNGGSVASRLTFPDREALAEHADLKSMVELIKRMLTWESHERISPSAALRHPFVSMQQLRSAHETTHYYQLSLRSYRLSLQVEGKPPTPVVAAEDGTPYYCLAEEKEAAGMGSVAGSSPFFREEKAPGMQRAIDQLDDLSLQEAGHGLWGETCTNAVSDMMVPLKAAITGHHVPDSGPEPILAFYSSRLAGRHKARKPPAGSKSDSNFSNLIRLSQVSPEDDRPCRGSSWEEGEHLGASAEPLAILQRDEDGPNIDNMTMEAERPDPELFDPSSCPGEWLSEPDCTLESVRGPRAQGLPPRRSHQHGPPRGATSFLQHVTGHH
Procedure: as §1

[6] = biological target: GSK-3 beta (Homo sapiens, UniProt P49841); test: Kinase electrophoretic mobility shift assay, GSK-3 beta; format: biochemical; conditions: compounds tested at 10 μM, average of n = 2, ATP at apparent Km; read-out: GSK-3 beta activity (percent inhibition)
Procedure: as §1

[7] = biological target: P38 beta (Homo sapiens, UniProt Q15759); test: Kinase electrophoretic mobility shift assay, P38 beta; format: biochemical; conditions: compounds tested at 10 μM, average of n = 2, ATP at apparent Km; read-out: P38 beta activity (percent inhibition)
Procedure: as §1

[8] = biological target: MNK2 (Homo sapiens, UniProt Q9HBH9); test: Kinase electrophoretic mobility shift assay, MNK2; format: biochemical; conditions: compounds tested at 10 μM, average of n = 2, ATP at apparent Km; read-out: MNK2 activity (percent inhibition)
Procedure: as §1

[9] = biological target: FMS (Homo sapiens, UniProt P07333); test: Kinase electrophoretic mobility shift assay, FMS; format: biochemical; conditions: compounds tested at 10 μM, average of n = 2, ATP at apparent Km; read-out: FMS activity (percent inhibition)
Procedure: as §1

[10] = tested on: treatment-refractory metastatic colorectal cancer; conditions: single agent, patients with treatment-refractory metastatic colorectal cancer, phase III; cited from earlier work

MNK2, sequence (Q9HBH9 whole entry, species assumed): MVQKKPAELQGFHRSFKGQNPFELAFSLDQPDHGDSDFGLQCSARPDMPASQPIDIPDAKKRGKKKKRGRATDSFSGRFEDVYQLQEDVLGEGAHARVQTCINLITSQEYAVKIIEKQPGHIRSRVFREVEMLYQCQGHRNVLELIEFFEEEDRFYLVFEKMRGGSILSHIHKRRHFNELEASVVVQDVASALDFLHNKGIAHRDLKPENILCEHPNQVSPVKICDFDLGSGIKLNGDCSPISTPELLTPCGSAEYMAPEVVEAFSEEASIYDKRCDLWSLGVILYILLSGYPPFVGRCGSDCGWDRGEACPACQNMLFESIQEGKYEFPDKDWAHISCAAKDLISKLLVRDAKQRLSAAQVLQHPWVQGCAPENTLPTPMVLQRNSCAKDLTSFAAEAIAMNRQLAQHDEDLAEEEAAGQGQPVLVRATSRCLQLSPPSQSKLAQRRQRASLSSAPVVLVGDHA
FMS, sequence (P07333 20-972, species assumed): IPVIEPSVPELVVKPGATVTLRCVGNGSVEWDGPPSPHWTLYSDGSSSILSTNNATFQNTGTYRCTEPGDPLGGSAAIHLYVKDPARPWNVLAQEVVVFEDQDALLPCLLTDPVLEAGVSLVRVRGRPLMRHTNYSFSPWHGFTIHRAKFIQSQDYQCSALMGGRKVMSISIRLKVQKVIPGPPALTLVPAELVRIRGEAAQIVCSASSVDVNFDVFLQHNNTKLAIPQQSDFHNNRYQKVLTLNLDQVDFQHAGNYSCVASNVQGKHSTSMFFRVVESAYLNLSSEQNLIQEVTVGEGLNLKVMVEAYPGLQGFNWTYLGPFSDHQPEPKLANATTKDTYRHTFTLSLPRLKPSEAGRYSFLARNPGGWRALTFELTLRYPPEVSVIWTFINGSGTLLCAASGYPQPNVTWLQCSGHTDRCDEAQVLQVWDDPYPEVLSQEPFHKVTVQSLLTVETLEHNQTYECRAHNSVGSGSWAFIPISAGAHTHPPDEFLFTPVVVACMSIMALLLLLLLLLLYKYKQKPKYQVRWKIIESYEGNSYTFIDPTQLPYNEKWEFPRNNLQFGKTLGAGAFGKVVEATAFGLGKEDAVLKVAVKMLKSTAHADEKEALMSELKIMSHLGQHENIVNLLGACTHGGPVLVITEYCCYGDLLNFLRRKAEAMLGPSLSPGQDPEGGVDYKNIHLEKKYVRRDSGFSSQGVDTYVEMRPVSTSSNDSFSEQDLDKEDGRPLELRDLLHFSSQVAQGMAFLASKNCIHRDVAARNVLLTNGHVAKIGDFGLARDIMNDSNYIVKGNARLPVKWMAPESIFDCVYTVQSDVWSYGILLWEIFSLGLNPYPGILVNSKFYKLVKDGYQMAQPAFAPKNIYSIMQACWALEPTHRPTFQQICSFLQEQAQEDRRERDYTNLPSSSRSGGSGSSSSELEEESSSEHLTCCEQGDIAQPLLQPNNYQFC
JNK2, sequence (P45984 whole entry, species assumed): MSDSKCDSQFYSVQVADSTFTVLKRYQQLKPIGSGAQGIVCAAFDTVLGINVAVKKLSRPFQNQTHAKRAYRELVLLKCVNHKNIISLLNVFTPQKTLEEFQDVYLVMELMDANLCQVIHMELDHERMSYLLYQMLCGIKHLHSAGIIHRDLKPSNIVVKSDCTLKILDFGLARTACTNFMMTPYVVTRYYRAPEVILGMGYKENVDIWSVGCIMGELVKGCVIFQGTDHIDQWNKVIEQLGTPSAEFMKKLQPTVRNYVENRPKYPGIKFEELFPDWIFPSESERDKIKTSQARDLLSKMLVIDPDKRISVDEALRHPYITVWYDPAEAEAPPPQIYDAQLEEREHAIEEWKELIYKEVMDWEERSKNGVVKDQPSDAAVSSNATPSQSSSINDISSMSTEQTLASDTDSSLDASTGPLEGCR
P38 beta, sequence (Q15759 whole entry): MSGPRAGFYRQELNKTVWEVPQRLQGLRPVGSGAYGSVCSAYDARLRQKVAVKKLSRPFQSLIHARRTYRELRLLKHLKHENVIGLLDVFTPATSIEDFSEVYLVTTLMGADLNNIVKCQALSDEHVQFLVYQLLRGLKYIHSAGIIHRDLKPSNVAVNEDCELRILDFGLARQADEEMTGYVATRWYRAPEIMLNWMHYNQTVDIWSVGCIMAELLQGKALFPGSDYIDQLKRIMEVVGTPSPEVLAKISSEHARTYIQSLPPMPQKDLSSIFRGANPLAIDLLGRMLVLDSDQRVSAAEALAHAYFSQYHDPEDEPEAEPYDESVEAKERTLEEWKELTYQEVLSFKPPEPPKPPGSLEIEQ
GSK-3 beta, sequence (P49841 whole entry, species assumed): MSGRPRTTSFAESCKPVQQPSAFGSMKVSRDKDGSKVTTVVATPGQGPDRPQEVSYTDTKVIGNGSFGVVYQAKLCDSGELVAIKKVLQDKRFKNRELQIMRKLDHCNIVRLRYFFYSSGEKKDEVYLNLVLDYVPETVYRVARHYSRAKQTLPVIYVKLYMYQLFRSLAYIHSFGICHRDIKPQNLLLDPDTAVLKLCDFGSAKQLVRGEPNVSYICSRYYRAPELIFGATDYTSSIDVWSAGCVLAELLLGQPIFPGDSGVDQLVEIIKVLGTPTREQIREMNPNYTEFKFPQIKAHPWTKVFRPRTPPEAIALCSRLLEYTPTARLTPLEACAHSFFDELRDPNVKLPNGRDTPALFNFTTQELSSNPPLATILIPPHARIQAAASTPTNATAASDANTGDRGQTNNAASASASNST
MAPK3, sequence (P27361 whole entry): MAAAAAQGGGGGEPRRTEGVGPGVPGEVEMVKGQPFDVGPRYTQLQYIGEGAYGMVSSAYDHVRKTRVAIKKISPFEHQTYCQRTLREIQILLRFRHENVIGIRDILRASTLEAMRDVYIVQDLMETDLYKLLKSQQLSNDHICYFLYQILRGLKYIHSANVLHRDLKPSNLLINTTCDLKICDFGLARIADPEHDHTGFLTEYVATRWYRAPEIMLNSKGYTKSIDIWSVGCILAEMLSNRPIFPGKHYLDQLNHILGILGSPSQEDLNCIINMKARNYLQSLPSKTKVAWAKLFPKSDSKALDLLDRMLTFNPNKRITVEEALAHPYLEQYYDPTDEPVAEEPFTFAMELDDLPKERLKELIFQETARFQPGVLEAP

| SMILES | inhibition at 10 µM [1] [%] | inhibition at 10 µM [2] [%] | inhibition at 10 µM [3] [%] | inhibition at 10 µM [4] [%] | inhibition at 10 µM [5] [%] | inhibition at 10 µM [6] [%] | inhibition at 10 µM [7] [%] | inhibition at 10 µM [8] [%] | inhibition at 10 µM [9] [%] | disease progression [10] | overall survival [10] |
| --- | --- | --- | --- | --- | --- | --- | --- | --- | --- | --- | --- |
| Cc1ccccc1-c1c2n(c3nc(Nc4ccc(N5CCOCC5)cc4)ncc13)CCNC2=O [Compd 1] | < 50 | < 50 | < 50 | < 50 | < 50 | < 50 | < 50 | < 50 | < 50 |  |  |
| Cc1ccccc1-c1c2n(c3nc(N[C@H]4CC[C@H](O)CC4)ncc13)CCNC2=O [Compd 2] | 71 to 90 | < 50 | < 50 | 50 to 70 | < 50 | < 50 | < 50 | < 50 | < 50 |  |  |
| O=C1NCCn2c1cc1cnc(N[C@H]3CC[C@H](O)CC3)nc12 [Compd 3] | > 90 | < 50 | 71 to 90 | 71 to 90 | 71 to 90 | 71 to 90 | < 50 | < 50 | < 50 |  |  |
| CCC1Cn2c(cc3cnc(N[C@H]4CC[C@H](O)CC4)nc32)C(=O)N1 (some centres unmarked) [Compd 5] | > 90 | < 50 | 71 to 90 | 71 to 90 | > 90 | > 90 | 50 to 70 | 50 to 70 | 71 to 90 |  |  |
| CNC(=O)c1cc(Oc2ccc(NC(=O)Nc3ccc(Cl)c(C(F)(F)F)c3)c(F)c2)ccn1 [regorafenib] |  |  |  |  |  |  |  |  |  | delayed disease progression | significantly improved overall survival |

Now from value to compound, other results behind:

| inhibition at 10 µM [1] [%] | inhibition at 10 µM [2] [%] | inhibition at 10 µM [3] [%] | inhibition at 10 µM [4] [%] | inhibition at 10 µM [5] [%] | inhibition at 10 µM [6] [%] | inhibition at 10 µM [7] [%] | inhibition at 10 µM [8] [%] | inhibition at 10 µM [9] [%] | SMILES | disease progression [10] | overall survival [10] |
| --- | --- | --- | --- | --- | --- | --- | --- | --- | --- | --- | --- |
| > 90 | 50 to 70 | 71 to 90 | 71 to 90 | > 90 | > 90 | 50 to 70 | 71 to 90 | > 90 | CC1(C)CNC(=O)c2cc3cnc(N[C@H]4CC[C@H](O)CC4)nc3n21 [Compd 4] |  |  |
| > 90 | 50 to 70 | 71 to 90 | > 90 | > 90 | > 90 | 50 to 70 | 50 to 70 | 50 to 70 | O=C1NC2(CCCC2)Cn2c1cc1cnc(N[C@H]3CC[C@H](O)CC3)nc12 [Compd 6] |  |  |
| > 90 | > 90 | > 90 | > 90 | > 90 | > 90 | 71 to 90 | 71 to 90 | 71 to 90 | O=C1NCC2(CCCC2)n2c1cc1cnc(N[C@H]3CC[C@H](O)CC3)nc12 [Compd 7] |  |  |
